From patent EP3800188A1, “SUBSTITUTED PYRAZOLOPYRIMIDINES AS IRAK4 INHIBITORS” (Bayer AG, priority 2019, dated 2021)

Tests used:
[1] = Metabolic stability in human liver microsomes; details: 1 µM compound; for CLblood, human microsomes: hepatic in vivo blood clearance calculated with well stirred liver model, '(stable)' given beside < 0.01; for Fmax, human microsomes: maximal oral bioavailability calculated with well stirred liver model, 0.5 mg/mL protein, '(stable)' given beside 100
human IRAK4 = biological target: T1, human IRAK4 (Homo sapiens, UniProt Q9NWZ3); assay: Human IRAK4 kinase activity inhibition assay (IRAK4 TR-FRET assay); format: biochemical; details: 1 mM ATP, GST-human IRAK4, average or median values
T1 construct: GST (N); made in house; host or cells: baculovirus-infected Hi5 (BTI-TN-5B1-4) insect cells
T1 sequence (Q9NWZ3 1-460): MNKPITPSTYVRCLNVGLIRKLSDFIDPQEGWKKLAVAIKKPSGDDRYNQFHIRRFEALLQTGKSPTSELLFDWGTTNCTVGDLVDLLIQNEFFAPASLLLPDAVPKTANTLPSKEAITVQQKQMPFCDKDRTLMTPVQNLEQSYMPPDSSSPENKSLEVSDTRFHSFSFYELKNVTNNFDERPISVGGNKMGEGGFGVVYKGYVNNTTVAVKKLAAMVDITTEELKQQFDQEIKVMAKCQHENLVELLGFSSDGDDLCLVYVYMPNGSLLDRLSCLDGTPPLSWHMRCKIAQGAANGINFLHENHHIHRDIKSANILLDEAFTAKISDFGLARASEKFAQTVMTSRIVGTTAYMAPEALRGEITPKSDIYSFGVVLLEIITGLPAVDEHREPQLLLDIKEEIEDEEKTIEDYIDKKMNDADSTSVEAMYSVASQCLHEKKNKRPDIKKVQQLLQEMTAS
Method in brief: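 Signal was the 665/620 nm emission ratio from a europium anti-mouse-IgG, anti-phosphoserine antibody and streptavidin-XL665 complex formed over 1 h at 22°C. It was scaled between no-enzyme (100%) and no-compound (0%) wells. Beforehand, compounds (20 µM down to 0.073 nM, 11 points) sat 15 min with roughly 0.2 nM insect-cell-expressed GST-human IRAK4 before phosphorylation of a biotinylated peptide substrate.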

Row | SMILES | CLblood, human microsomes [1] | Fmax, human microsomes [1] | IC50 (human IRAK4) [nM]
1 | CC(C)(O)CC1CN(c2nc(N[C@H]3C[C@H](S(C)(=O)=O)C3)nc3c2cnn3-c2cccc(C(F)(F)F)c2)C1 [Example I-67, 2-methyl-1-[1-(6-{[trans-3-(methylsulfonyl)cyclobutyl]amino}-1-[3-(trifluoromethyl)-phenyl]-1H-pyrazolo[3,4-d]pyrimidin-4-yl)azetidin-3-yl]propan-2-ol] | 0.24 L/h/kg | 82% | 5.33
2 | CC(C)(O)CC1CN(c2nc(NC3CN(S(C)(=O)=O)C3)nc3c2cnn3-c2cccc(C(F)(F)F)c2)C1 [Example I-68, 2-methyl-1-[1-(6-{[1-(methylsulfonyl)azetidin-3-yl]amino}-1-[3-(trifluoromethyl)phenyl]-1H-pyrazolo[3,4-d]pyrimidin-4-yl)azetidin-3-yl]propan-2-ol] | 0.02 L/h/kg | 99% | 23
3 | O[C@H]1C[C@H](Nc2nc(N3CC(N4CCOCC4)C3)c3cnn(-c4cccc(C(F)(F)F)c4)c3n2)C1 [Example I-74, trans-3-({4-[3-(morpholin-4-yl)azetidin-1-yl]-1-[3-(trifluoromethyl)phenyl]-1H-pyrazolo-[3,4-d]pyrimidin-6-yl}amino)cyclobutanol] | 0.11 L/h/kg | 91% | 4.83
4 | CC1(N2CCOCC2)CN(c2nc(N[C@H]3C[C@@H](O)C3)nc3c2cnn3-c2cccc(C(F)(F)F)c2)C1 [Example I-76, cis-3-({4-[3-methyl-3-(morpholin-4-yl)azetidin-1-yl]-1-[3-(trifluoromethyl)phenyl]-1H-pyrazolo[3,4-d]pyrimidin-6-yl}amino)cyclobutanol] | 0.30 L/h/kg | 77% | 9.61
5 | C[C@]1(O)C[C@H](Nc2nc(N3CC(N4CCOCC4)C3)c3cnn(-c4cccc(C(F)(F)F)c4)c3n2)C1 [Example I-77, trans-1-methyl-3-({4-[3-(morpholin-4-yl)azetidin-1-yl]-1-[3-(trifluoromethyl)phenyl]-1H-pyrazolo[3,4-d]pyrimidin-6-yl}amino)cyclobutanol] | 0.36 L/h/kg | 72% | 4.8
6 | C[C@]1(O)C[C@@H](Nc2nc(N3CC(N4CCOCC4)C3)c3cnn(-c4cccc(C(F)(F)F)c4)c3n2)C1 [Example I-78, cis-1-methyl-3-({4-[3-(morpholin-4-yl)azetidin-1-yl]-1-[3-(trifluoromethyl)phenyl]-1H-pyrazolo[3,4-d]pyrimidin-6-yl}amino)cyclobutanol] | 0.32 L/h/kg | 76% | 5.62
7 | CC1(O)CCN(C2CN(c3nc(N[C@H]4C[C@H](O)C4)nc4c3cnn4-c3cccc(C(F)(F)F)c3)C2)CC1 [Example I-79, 1-(1-{6-[(trans-3-hydroxycyclobutyl)amino]-1-[3-(trifluoromethyl)phenyl]-1H-pyrazolo-[3,4-d]pyrimidin-4-yl}azetidin-3-yl)-4-methylpiperidin-4-ol] | 0.41 L/h/kg | 69% | 7.75
8 | CC(C)(O)C1CN(c2nc(N[C@H]3C[C@H](S(C)(=O)=O)C3)nc3c2cnn3-c2cccc(C(F)(F)F)c2)C1 [Example I-83, 2-[1-(6-{[trans-3-(methylsulfonyl)cyclobutyl]amino}-1-[3-(trifluoromethyl)phenyl]-1H-pyrazolo[3,4-d]pyrimidin-4-yl)azetidin-3-yl]propan-2-ol] | 0.23 L/h/kg | 83% | 5.53
9 | O[C@@H]1CN(c2nc(N[C@H]3C[C@@H](O)C3)nc3c2cnn3-c2cccc(C(F)(F)F)c2)C[C@H]1O [Example I-85, (3R,4R)-1-(6-{[(1s,3S)-3-hydroxycyclobutyl]amino}-1-[3-(trifluoromethyl)phenyl]-1H-pyrazolo[3,4-d]pyrimidin-4-yl)pyrrolidine-3,4-diol] | < 0.01 (stable) L/h/kg | 100 (stable) % | 2.41
10 | CS(=O)(=O)[C@H]1C[C@H](Nc2nc(N3C[C@@H](O)[C@H](F)C3)c3cnn(-c4cccc(C(F)(F)F)c4)c3n2)C1 [Example I-86, (3R,4R)-4-fluoro-1-(6-{[(1r,3R)-3-(methylsulfonyl)cyclobutyl]amino}-1-[3-(trifluoromethyl)phenyl]-1H-pyrazolo[3,4-d]pyrimidin-4-yl)pyrrolidin-3-ol] | 0.25 L/h/kg | 81% | 3.66
11 | O[C@@H]1CN(c2nc(N[C@H]3C[C@H](O)C3)nc3c2cnn3-c2cccc(C(F)(F)F)c2)C[C@H]1F [Example I-88, (3R,4R)-4-fluoro-1-(6-{[(1r,3R)-3-hydroxycyclobutyl]amino}-1-[3-(trifluoromethyl)-phenyl]-1H-pyrazolo[3,4-d]pyrimidin-4-yl)pyrrolidin-3-ol] | 0.57 L/h/kg | 57% | 3.94
12 | O[C@@H]1CN(c2nc(N[C@H]3C[C@@H](O)C3)nc3c2cnn3-c2cccc(C(F)(F)F)c2)C[C@H]1F [Example I-89, (3R,4R)-4-fluoro-1-(6-{[(1s,3S)-3-hydroxycyclobutyl]amino}-1-[3-(trifluoromethyl)-phenyl]-1H-pyrazolo[3,4-d]pyrimidin-4-yl)pyrrolidin-3-ol] | 0.37 L/h/kg | 72% | 4.72
13 | CC(C)(O)C1CCN(c2nc(N[C@H]3C[C@](C)(O)C3)nc3c2cnn3-c2cccc(C(F)(F)F)c2)CC1 [Example I-91, trans-3-({4-[4-(2-hydroxypropan-2-yl)piperidin-1-yl]-1-[3-(trifluoromethyl)phenyl]-1H-pyrazolo[3,4-d]pyrimidin-6-yl}amino)-1-methylcyclobutanol] | 0.04 L/h/kg | 97% | 6.53
14 | CCC1(O)CN(c2nc(N[C@H]3C[C@H](S(C)(=O)=O)C3)nc3c2cnn3-c2cccc(C(F)(F)F)c2)C1 [Example I-92, 3-ethyl-1-(6-{[trans-3-(methylsulfonyl)cyclobutyl]amino}-1-[3-(trifluoromethyl)phenyl]-1H-pyrazolo[3,4-d]pyrimidin-4-yl)azetidin-3-ol] | 0.36 L/h/kg | 73% | 5.61
15 | CS(=O)(=O)[C@H]1C[C@H](Nc2nc(N3C[C@H](O)[C@@H](F)C3)c3cnn(-c4cccc(C(F)(F)F)c4)c3n2)C1 [Example I-94, (3S,4S)-4-fluoro-1-(6-{[(1r,3S)-3-(methylsulfonyl)cyclobutyl]amino}-1-[3-(trifluoromethyl)phenyl]-1H-pyrazolo[3,4-d]pyrimidin-4-yl)pyrrolidin-3-ol] | 0.16 L/h/kg | 88% | 4.28
16 | O[C@H]1CN(c2nc(N[C@H]3C[C@@]4(CCN4)C3)nc3c2cnn3-c2cccc(C(F)(F)F)c2)C[C@@H]1F [Example I-98, (3S,4S)-1-{6-[(4S,6s)-1-azaspiro[3.3]heptan-6-ylamino]-1-[3-(trifluoromethyl)phenyl]-1H-pyrazolo[3,4-d]pyrimidin-4-yl}-4-fluoropyrrolidin-3-ol] | < 0.01 (stable) L/h/kg | 100 (stable) % | 9.99
